Source: US11040962B2, “Pesticidally active pyrazole derivatives” (SYNGENTA PARTICIPATIONS AG, priority 2017, dated 2021)

Columns and labels:
Assay type in all cases: in vivo
[1] = test system: Plutella xylostella; test: Plutella xylostella (diamond back moth) artificial diet test; settings: 120 h, application rate 200 ppm, L2 larvae, 5 days after infestation, vs untreated, read-out: effect in at least one of the two categories (mortality or growth inhibition)
Experimental: Plutella xylostella (Diamond Back Moth):
24-well microtiter plates with artificial diet were treated with aqueous test solutions prepared from 10′000 ppm DMSO stock solutions by pipetting. After drying, the plates were infested with L2 larvae (10 to 15 per well). The samples were assessed for mortality and growth inhibition in comparison to untreated samples 5 days after infestation. The following compounds gave an effect of at least 80% in at least one of the two categories (mortality or growth inhibition) at an application rate of 200 ppm: 1, 2, 3, 4, 7, 8, 9, 10, 11, 12, 13, 14, 15, 16, 17, 18, 19, 20, 21, 22, 23, 24, 26, 27, 28 and 29.

[2] = test system: Euschistus heros; test: Euschistus heros (neotropical brown stink bug) soybean leaf spray test; settings: 120 h, application rate 200 ppm, N2 nymphs, 5 days after infestation, vs untreated, read-out: effect in at least one of the two categories (mortality or growth inhibition)
Experimental: Euschistus heros (Neotropical Brown Stink Bug)
Soybean leaves on agar in 24-well microtiter plates were sprayed with aqueous test solutions prepared from 10′000 ppm DMSO stock solutions. After drying the leaves were infested with N2 nymphs. The samples were assessed for mortality and growth inhibition in comparison to untreated samples 5 days after infestation. The following compounds gave an effect of at least 80% in at least one of the two categories (mortality or growth inhibition) at an application rate of 200 ppm: 1, 2, 3, 7, 8, 9, 12, 13, 14, 15, 17, 18, 21, 25, 26, 27, 28 and 29.

[3] = test system: Spodoptera littoralis; test: Spodoptera littoralis (Egyptian cotton leaf worm) cotton leaf disc spray test; settings: foliar, 72 h, application rate 200 ppm, L1 larvae, 3 days after infestation, vs untreated, read-out: control (at least one of mortality, anti-feedant effect, growth inhibition)
Experimental: Spodoptera littoralis (Egyptian Cotton Leaf Worm)
Cotton leaf discs were placed on agar in 24-well microtiter plates and sprayed with aqueous test solutions prepared from 10′000 ppm DMSO stock solutions. After drying the leaf discs were infested with five L1 larvae. The samples were assessed for mortality, anti-feedant effect, and growth inhibition in comparison to untreated samples 3 days after infestation. Control of Spodoptera littoralis by a test sample is when at least one of mortality, anti-feedant effect, and growth inhibition is higher than the untreated sample.

[4] = test system: Thrips tabaci; test: Thrips tabaci (onion thrips) sunflower leaf disc spray test; settings: foliar, 144 h, application rate 200 ppm, population of mixed ages, 6 days after infestation
Experimental: Thrips tabaci (Onion Thrips):
(§1) Sunflower leaf discs were placed on agar in 24-well microtiter plates and sprayed with aqueous test solutions prepared from 10′000 ppm DMSO stock solutions. After drying the leaf discs were infested with a Thrips population of mixed ages. The samples were assessed for mortality 6 days after infestation.

[5] = test system: Diabrotica balteata; test: Diabrotica balteata (corn root worm) maize sprout spray test; settings: 96 h, application rate 200 ppm, L2 larvae, 4 days after infestation, vs untreated, read-out: effect in at least one of the two categories (mortality or growth inhibition)
Experimental: Diabrotica balteata, (Corn Root Worm)
Maize sprouts, placed on an agar layer in 24-well microtiter plates were treated with aqueous test solutions prepared from 10′000 ppm DMSO stock solutions by spraying. After drying, the plates were infested with L2 larvae (6 to 10 per well). The samples were assessed for mortality and growth inhibition in comparison to untreated samples 4 days after infestation. The following compounds gave an effect of at least 80% in at least one of the two categories (mortality or growth inhibition) at an application rate of 200 ppm: 1, 2, 3, 4, 7, 8, 9, 11, 12, 13, 14, 15, 16, 17, 18, 19, 20, 21, 27, 28 and 29.

[6] = test system: Tetranychus urticae; test: Tetranychus urticae (two-spotted spider mite) bean leaf disc spray test; settings: foliar, 192 h, application rate 200 ppm, 8 days after infestation, read-out: mortality on mixed population (mobile stages)
Experimental: Tetranychus urticae (Two-Spotted Spider Mite):
as §1, with “Bean” for “Sunflower”, “discs” for “discs were placed”, “were” for “and”, “mite” for “Thrips”, “on mixed population (mobile stages) 8” for “6”

Cn1nc(C(F)(F)C(F)(F)F)c(C(F)(F)F)c1-n1cc(-c2cc(C(=O)NC3CC3)c(C#N)s2)nn1 [Compound 1, 2-cyano-N-cyclopropyl-5-[1-[2-methyl-5-(1,1,2,2,2-pentafluoroethyl)-4-(trifluoromethyl)pyrazol-3-yl]triazol-4-yl]thiophene-3-carboxamide]
≥ 80%: percent effect (mortality or growth inhibition) at 200 ppm [1] | percent effect (mortality or growth inhibition) at 200 ppm [2] | percent control (mortality, anti-feedant effect or growth inhibition) at 200 ppm [3] | mortality at 200 ppm [4] | percent effect (mortality or growth inhibition) at 200 ppm [5] | mortality at 200 ppm [6]

Cn1nc(C(F)(F)C(F)(F)F)c(C(F)(F)F)c1-n1cc(-c2cc(C(=O)NC3(C#N)CC3)c(C#N)s2)nn1 [Compound 4, 2-cyano-N-(1-cyanocyclopropyl)-5-[1-[2-methyl-5-(1,1,2,2,2-pentafluoroethyl)-4-(trifluoromethyl)pyrazol-3-yl]triazol-4-yl]thiophene-3-carboxamide]
≥ 80%: percent effect (mortality or growth inhibition) at 200 ppm [1] | percent control (mortality, anti-feedant effect or growth inhibition) at 200 ppm [3] | mortality at 200 ppm [4] | percent effect (mortality or growth inhibition) at 200 ppm [5] | mortality at 200 ppm [6]

Cn1nc(C(F)(F)C(F)(F)F)c(C(F)(F)F)c1-n1cc(-c2cc(C(=O)NC3(C#N)CC3)c(Cl)s2)nn1 [Compound 10, 2-chloro-N-(1-cyanocyclopropyl)-5-[1-[2-methyl-5-(1,1,2,2,2-pentafluoroethyl)-4-(trifluoromethyl)pyrazol-3-yl]triazol-4-yl]thiophene-3-carboxamide]
≥ 80%: percent effect (mortality or growth inhibition) at 200 ppm [1] | percent control (mortality, anti-feedant effect or growth inhibition) at 200 ppm [3] | mortality at 200 ppm [4]

CN(C(=O)c1cc(-c2cn(-c3c(C(F)(F)F)c(C(F)(F)C(F)(F)F)nn3C)nn2)sc1Cl)C1(C#N)CC1 [Compound 11, 2-chloro-N-(1-cyanocyclopropyl)-N-methyl-5-[1-[2-methyl-5-(1,1,2,2,2-pentafluoroethyl)-4-(trifluoromethyl)pyrazol-3-yl]triazol-4-yl]thiophene-3-carboxamide]
≥ 80%: percent effect (mortality or growth inhibition) at 200 ppm [1] | percent control (mortality, anti-feedant effect or growth inhibition) at 200 ppm [3] | mortality at 200 ppm [4] | percent effect (mortality or growth inhibition) at 200 ppm [5]

CCN(C(=O)c1cc(-c2cn(-c3c(C(F)(F)F)c(C(F)(F)C(F)(F)F)nn3C)nn2)sc1Cl)C1(C#N)CC1 [Compound 12, 2-chloro-N-(1-cyanocyclopropyl)-N-ethyl-5-[1-[2-methyl-5-(1,1,2,2,2-pentafluoroethyl)-4-(trifluoromethyl)pyrazol-3-yl]triazol-4-yl]thiophene-3-carboxamide]
≥ 80%: percent effect (mortality or growth inhibition) at 200 ppm [1] | percent effect (mortality or growth inhibition) at 200 ppm [2] | percent control (mortality, anti-feedant effect or growth inhibition) at 200 ppm [3] | mortality at 200 ppm [4] | percent effect (mortality or growth inhibition) at 200 ppm [5]

Cn1nc(C(F)(F)C(F)(F)F)c(C(F)(F)F)c1-c1cc(-c2cc(C(=O)NC3(C#N)CC3)c(C#N)s2)on1 [Compound 16, 2-cyano-N-(1-cyanocyclopropyl)-5-[3-[2-methyl-5-(1,1,2,2,2-pentafluoroethyl)-4-(trifluoromethyl)pyrazol-3-yl]isoxazol-5-yl]thiophene-3-carboxamide]
≥ 80%: percent effect (mortality or growth inhibition) at 200 ppm [1] | percent control (mortality, anti-feedant effect or growth inhibition) at 200 ppm [3] | mortality at 200 ppm [4] | percent effect (mortality or growth inhibition) at 200 ppm [5] | mortality at 200 ppm [6]

CCN(C(=O)c1cc(-c2cc(-c3c(C(F)(F)F)c(C(F)(F)C(F)(F)F)nn3C)no2)sc1C#N)C1(C#N)CC1 [Compound 18, 2-cyano-N-(1-cyanocyclopropyl)-N-ethyl-5-[3-[2-methyl-5-(1,1,2,2,2-pentafluoroethyl)-4-(trifluoromethyl)pyrazol-3-yl]isoxazol-5-yl]thiophene-3-carboxamide]
≥ 80%: percent effect (mortality or growth inhibition) at 200 ppm [1] | percent effect (mortality or growth inhibition) at 200 ppm [2] | percent control (mortality, anti-feedant effect or growth inhibition) at 200 ppm [3] | mortality at 200 ppm [4] | percent effect (mortality or growth inhibition) at 200 ppm [5]

Cn1nc(C(F)(F)C(F)(F)F)c(C(F)(F)F)c1-c1cc(-c2cc(C(=O)NC3CC3)c(Cl)s2)on1 [Compound 19, 2-chloro-N-cyclopropyl-5-[3-[2-methyl-5-(1,1,2,2,2-pentafluoroethyl)-4-(trifluoromethyl)pyrazol-3-yl]isoxazol-5-yl]thiophene-3-carboxamide]
≥ 80%: percent effect (mortality or growth inhibition) at 200 ppm [1] | percent control (mortality, anti-feedant effect or growth inhibition) at 200 ppm [3] | percent effect (mortality or growth inhibition) at 200 ppm [5]

CN(C(=O)c1cc(-c2cc(-c3c(C(F)(F)F)c(C(F)(F)C(F)(F)F)nn3C)no2)sc1Cl)C1CC1 [Compound 20, 2-chloro-N-cyclopropyl-N-methyl-5-[3-[2-methyl-5-(1,1,2,2,2-pentafluoroethyl)-4-(trifluoromethyl)pyrazol-3-yl]isoxazol-5-yl]thiophene-3-carboxamide]
≥ 80%: percent effect (mortality or growth inhibition) at 200 ppm [1] | percent control (mortality, anti-feedant effect or growth inhibition) at 200 ppm [3] | mortality at 200 ppm [4] | percent effect (mortality or growth inhibition) at 200 ppm [5]

CCN(C(=O)c1cc(-c2cc(-c3c(C(F)(F)F)c(C(F)(F)C(F)(F)F)nn3C)no2)sc1Cl)C1CC1 [Compound 21, 2-chloro-N-cyclopropyl-N-ethyl-5-[3-[2-methyl-5-(1,1,2,2,2-pentafluoroethyl)-4-(trifluoromethyl)pyrazol-3-yl]isoxazol-5-yl]thiophene-3-carboxamide]
≥ 80%: percent effect (mortality or growth inhibition) at 200 ppm [1] | percent effect (mortality or growth inhibition) at 200 ppm [2] | percent control (mortality, anti-feedant effect or growth inhibition) at 200 ppm [3] | percent effect (mortality or growth inhibition) at 200 ppm [5]

Cn1nc(C(F)(F)C(F)(F)F)c(C(F)(F)F)c1-c1cc(-c2cc(C(=O)NC3(C#N)CC3)c(Cl)s2)on1 [Compound 22, 2-chloro-N-(1-cyanocyclopropyl)-5-[3-[2-methyl-5-(1,1,2,2,2-pentafluoroethyl)-4-(trifluoromethyl)pyrazol-3-yl]isoxazol-5-yl]thiophene-3-carboxamide]
≥ 80%: percent effect (mortality or growth inhibition) at 200 ppm [1]

CN(C(=O)c1cc(-c2cc(-c3c(C(F)(F)F)c(C(F)(F)C(F)(F)F)nn3C)no2)sc1Cl)C1(C#N)CC1 [Compound 23, 2-chloro-N-(1-cyanocyclopropyl)-N-methyl-5-[3-[2-methyl-5-(1,1,2,2,2-pentafluoroethyl)-4-(trifluoromethyl)pyrazol-3-yl]isoxazol-5-yl]thiophene-3-carboxamide]
≥ 80%: percent effect (mortality or growth inhibition) at 200 ppm [1] | percent control (mortality, anti-feedant effect or growth inhibition) at 200 ppm [3] | mortality at 200 ppm [4]

CCN(C(=O)c1cc(-c2cc(-c3c(C(F)(F)F)c(C(F)(F)C(F)(F)F)nn3C)no2)sc1Cl)C1(C#N)CC1 [Compound 24]
≥ 80%: percent effect (mortality or growth inhibition) at 200 ppm [1] | percent control (mortality, anti-feedant effect or growth inhibition) at 200 ppm [3] | mortality at 200 ppm [4]

Cn1nc(C(F)(F)C(F)(F)F)c(C(F)(F)F)c1-c1cc(-c2cc(C(=O)NC3CC3)c(C#N)s2)cs1 [Compound 25, 2-cyano-N-cyclopropyl-5-[5-[2-methyl-5-(1,1,2,2,2-pentafluoroethyl)-4-(trifluoromethyl)pyrazol-3-yl]-3-thienyl]thiophene-3-carboxamide]
≥ 80%: percent effect (mortality or growth inhibition) at 200 ppm [2] | mortality at 200 ppm [6]
